From patent publication US10653658B2, “Biofilm inhibiting compositions enhancing weight gain in livestock” (Akeso Biomedical, Inc., priority 2015, dated 2020)
Marks after values point to notes of the source that are not given here.

Experiment: Growth performance of broilers given FeQ or FeTyr in water/feed, dirty litter Campylobacter challenge at day 20 (Example 1)
Assay type: in vivo, Ross 308 male broilers
Description: A study was performed to evaluate growth promotion and reduction of Campylobacter carriage using FeQ and FeTyr in Ross 308 male broilers with 7 treatment groups. Each treatment group comprised four replicates of 10 birds per pen (40 birds/treatment group and 4 pens of 10 birds/treatment group), with 2 control groups and 5 test groups. All the test groups and one of the control groups were exposed at day 20 of the trial to dirty litter, which tested positive for Campylobacter. This method was used to provide a more natural method to Campylobacter challenge the birds. Thus there was a positive control where one treatment group was challenged with Campylobacter and one negative control group where the birds were not challenged, and five treatment groups that were all challenged with Campylobacter. The total number of birds used in the 7 treatment groups was 280. Treatment group 1 was a negative control where birds just received the commercial feed, and were not challenged with dirty litter containing Campylobacter. Treatment group 2 was the positive control where the birds received the commercial feed, and were challenged with dirty litter containing Campylobacter at day 20. Treatment group 3 received 0.22 g/L of FeQ in their drinking water and 0.22 g/Kg FeQ in their feed during the entire trial, and was challenged with dirty litter containing Campylobacter at day 20. Treatment group 5 received 0.22 g/L of FeQ in their drinking water during the entire trial, and was challenged with dirty litter containing Campylobacter at day 20. Treatment group 6 received 0.22 g/kg FeQ in their feed during the entire trial, and was challenged with dirty litter containing Campylobacter at day 20. Treatment group 7 received 0.022 g/L FeQ in their drinking water during the entire trial, and was challenged with dirty litter containing Campylobacter at day 20. Treatment group 8 received 0.02 g/L FeTyr in their drinking water during the entire trial, and was challenged with dirty litter containing Campylobacter at day 20. The FeTyr was pre-dissolved in DMSO, and diluted to provide a solution of 0.02 g/L of FeTyr in water. (An additional treatment group 4 was terminated due to solubility issues.)
The birds were fed with a commercial three-phase feeding program using starter, grower and finisher feeds with formulations shown in Table 2. All diets had coccidiostat (MAXIBAN® at 0.0625% in starter and […] and MONTEBAN® at 0.06% in finisher phase). Xylanase (RONOZYME® WX at 200 g per ton) and phytase (RONOZYME® P at 150 grams per ton) were added to all diets.
The feeding program is show in Table 3. The birds were reared in floor pens to day 42, and fed starter, grower and finisher feed at day 0 to 11, 11 to 24, and 24 to 42 days, respectively. All birds were weighed individually and feed weigh backs recorded per pen at day 0, 11, 21, 24 and 42 days.
Prior to challenging the chickens with dirty litter containing Campylobacter at day 20, each pen was tested for Campylobacter using cloacal swabs. All pens tested negative for Campylobacter prior to the challenge. At day 20, litter, which was naturally Campylobacter-contaminated, was tested to confirm the presence of Campylobacter, and then added (approximately 2 kg/pen) to the litter in all pens except in pens for treatment group 1 (the negative control). At day 28, the pen litter was sampled to confirm the presence or absence of Campylobacter. At day 41 and 42, caecal samples were taken from 3 birds per pen (12 birds per treatment group) and tested for Campylobacter enumeration. At day 42, digesta, fecal samples, and caecal content was taken from all birds, and pooled per pen. Two birds per pen were also taken from treatment groups 1-3, euthanized, and blood samples taken. […]

[1] = FeQ groups 3, 5, 6, 7 pooled, absence of Campylobacter challenge
[2] = treatment 3: 0.22 g/L FeQ in water + 0.22 g/kg FeQ in feed
[3] = treatment 3: 0.22 g/L FeQ in water + 0.22 g/kg FeQ in feed, before challenge
[4] = treatment 5: 0.22 g/L FeQ in water

## O=C([O-])C1(O)CC(O)C(O)C(O)C1.O=C([O-])C1(O)CC(O)C(O)C(O)C1.O=C([O-])C1(O)CC(O)C(O)C(O)C1.[Fe+3] (centres unmarked) [FeQ, Ferric Quinate]
[1]
  ABW (average body weight) Day 11: 0.339 kg
  ABW (average body weight) Day 20: 0.963 kg
  AFD (average feed intake) 0-20 days: 1.191 kg
  AWG (average weight gain) 0-20 days: 0.923 kg
Compared with control groups 1 and 2
  effect on growth performance in the absence of Campylobacter challenge, first 20 days: promotes growth of chicken
[2]
  ABW (average body weight) Day 0: 0.040 kg
  ABW (average body weight) Day 11: 0.346 kg
  ABW (average body weight) Day 20: 0.972 kg
  ABW (average body weight) Day 25: 1.424 kg
  ABW (average body weight) Day 42: 3.342 kg
  AFD (average feed intake) Day 0-11: 0.356 kg
  AFD (average feed intake) Day 0-42: 5.267 kg
  AFD (average feed intake) Day 11-20: 0.857 kg
  AFD (average feed intake) Day 11-25: 1.524 kg
  AFD (average feed intake) Day 20-25: 0.667 kg
  AFD (average feed intake) Day 20-42: 4.054 kg
  AFD (average feed intake) Day 25-42: 3.387 kg
  AWG (average weight gain) Day 0-11: 0.306 kg
  AWG (average weight gain) Day 0-42: 3.302^ab kg
  AWG (average weight gain) Day 11-20: 0.625 kg
  AWG (average weight gain) Day 11-25: 1.078 kg
  AWG (average weight gain) Day 20-25: 0.453 kg
  AWG (average weight gain) Day 20-42: 2.370^ab kg
  AWG (average weight gain) Day 25-42: 1.918^ab kg
  EPEF (European production and efficiency factor) Day 20: 350.4
  EPEF (European production and efficiency factor) Day 42: 262.9
  MFCR (mortality adjusted FCR) Day 11-20: 1.375
  MFCR (mortality adjusted FCR) Day 11-25: 1.417
  MFCR (mortality adjusted FCR) Day 20-25: 1.477
  MFCR (mortality adjusted FCR) Day 25-42: 1.773
  MFCR (mortality adjusted feed conversion ratio) Day 0-11: 1.181^ab
  MFCR (mortality adjusted) Day 0-42: 1.595
  MFCR (mortality adjusted) Day 20-42: 1.713
[3]
  AFD (average feed intake) Day 0-20: 1.213 kg
  AWG (average weight gain) Day 0-20: 0.931 kg
  MFCR (mortality adjusted) Day 0-20: 1.310
[4]
  ABW (average body weight) Day 0: 0.040 kg
  ABW (average body weight) Day 11: 0.334 kg
  ABW (average body weight) Day 20: 0.943 kg
  ABW (average body weight) Day 25: 1.384 kg
  ABW (average body weight) Day 42: 3.407 kg
  AFD (average feed intake) Day 0-11: 0.352 kg
  AFD (average feed intake) Day 0-42: 5.188 kg
  AFD (average feed intake) Day 11-20: 0.821 kg
  AFD (average feed intake) Day 11-25: 1.479 kg
  AFD (average feed intake) Day 20-25: 0.658 kg
  AFD (average feed intake) Day 20-42: 4.015 kg
  AFD (average feed intake) Day 25-42: 3.357 kg
  AWG (average weight gain) Day 0-11: 0.294 kg
  AWG (average weight gain) Day 0-42: 3.367^ab kg
  AWG (average weight gain) Day 11-20: 0.609 kg
  AWG (average weight gain) Day 11-25: 1.050 kg
  AWG (average weight gain) Day 20-25: 0.441 kg
  AWG (average weight gain) Day 20-42: 2.464^ab kg
  AWG (average weight gain) Day 25-42: 2.023^b kg
  EPEF (European production and efficiency factor) Day 20: 352.0
  EPEF (European production and efficiency factor) Day 42: 278.3
  MFCR (mortality adjusted FCR) Day 11-20: 1.348
  MFCR (mortality adjusted FCR) Day 11-25: 1.409
  MFCR (mortality adjusted FCR) Day 20-25: 1.495
  MFCR (mortality adjusted FCR) Day 25-42: 1.706
  MFCR (mortality adjusted feed conversion ratio) Day 0-11: 1.210^ab
  MFCR (mortality adjusted) Day 0-42: 1.560
  MFCR (mortality adjusted) Day 20-42: 1.665
Treatment 5: 0.22 g/L FeQ in water, before challenge
  AFD (average feed intake) Day 0-20: 1.173 kg
